The record followed here is patent US10752615B2, “Spirocyclic containing compounds and pharmaceutical uses thereof” (GB005, Inc., priority 2016, dated 2020).

The target in one test is BTK (Homo sapiens (Human), UniProt Q06187). The experiment in a line: Kinase inhibition assay (Nanosyn, microfluidic detection), BTK. Type of test: biochemical. Conditions: 1 mM ATP, 3 hours at 25° C. The procedure: (§1) The in vitro kinase assays were performed at Nanosyn (Santa Clara, Calif.) utilizing microfluidic detection technology. The test compounds were serially pre-diluted in DMSO and added, by the acoustic dispensing (Labcyte® 550), directly to 384 well assay plates into 10 uL of a buffer with enzyme (ITK, TXK, BTK or TEC) comprising: 100 mM HEPES, pH7.5, 5 mM MgCl2, 0.1% bovine serum albumin, 1 mM DTT, 0.01% Triton X-100 and the enzyme. Final DMSO concentration was maintained at 1% in all samples, including the controls. The reactions were initiated by addition of ATP (1 mM final concentration) and the fluorescently labeled peptide substrate to a final concentration of 1 uM, and incubated for 3 hours at 25° C. Following incubation, the reactions were quenched by addition of 40 μL of termination buffer (100 mM HEPES, pH7.5, 0.01% Triton X-100, 50 mM EDTA). Terminated plates were analyzed using Caliper LabChip® 3000 microfluidic electrophoresis instrument (Caliper Life Sciences/Perkin Elmer). The enzymatic modification of the peptide substrate (phosphorylation) results in a change of net charge enabling electrophoretic separation of product from substrate. As substrate and product are separated by electrophoresis, two peaks of fluorescence are observed. Change in the relative fluorescence intensity of the substrate and product peaks was the parameter measured, reflecting enzyme activity. In the presence of inhibitor, the ratio between product and substrate is altered: signal of the product decreases, while the signal of the substrate increases. Activity in each test sample was determined as the product to sum ratio (PSR): P/(S+P), where P is the peak height of the product and S is the peak height of the […]. For each compound, enzyme activity was measured at 12 concentrations spaced by 3× dilution intervals. Negative control samples (0%-inhibition in the absence of inhibitor, DMSO only) and positive control samples (100%-inhibition, in the absence of enzyme or in the presence of control inhibitor) were assembled in replicates of four and were used to calculate %-inhibition values in the presence of compounds. Percent inhibition (Pinh) was determined using the following equation: Pinh=(PSR0%−PSRinh)/(PSR0%−PSR100%)*100, where PSRinh is the product sum ratio in the presence of inhibitor, PSR0% is the product sum ratio in the absence of inhibitor and PSR100% is the product sum ratio in 100%-inhibition control samples. To determine IC50 values, the inhibition curves (Pinh versus inhibitor concentration) were fitted by 4 parameter sigmoid dose-response model using XLfit software (IDBS).

Another test deals with TXK (Homo sapiens (Human), UniProt P42681). The experiment in a line: Kinase inhibition assay (Nanosyn, microfluidic detection), TXK. Conditions: 1 mM ATP, 3 hours at 25° C. The class given is biochemical. The procedure: as §1, with “The enzymatic modification of the peptide substrate (phosphorylation) results in a change of net charge enabling electrophoretic separation of product from substrate.” left out
Sequence of TXK (P42681 whole entry): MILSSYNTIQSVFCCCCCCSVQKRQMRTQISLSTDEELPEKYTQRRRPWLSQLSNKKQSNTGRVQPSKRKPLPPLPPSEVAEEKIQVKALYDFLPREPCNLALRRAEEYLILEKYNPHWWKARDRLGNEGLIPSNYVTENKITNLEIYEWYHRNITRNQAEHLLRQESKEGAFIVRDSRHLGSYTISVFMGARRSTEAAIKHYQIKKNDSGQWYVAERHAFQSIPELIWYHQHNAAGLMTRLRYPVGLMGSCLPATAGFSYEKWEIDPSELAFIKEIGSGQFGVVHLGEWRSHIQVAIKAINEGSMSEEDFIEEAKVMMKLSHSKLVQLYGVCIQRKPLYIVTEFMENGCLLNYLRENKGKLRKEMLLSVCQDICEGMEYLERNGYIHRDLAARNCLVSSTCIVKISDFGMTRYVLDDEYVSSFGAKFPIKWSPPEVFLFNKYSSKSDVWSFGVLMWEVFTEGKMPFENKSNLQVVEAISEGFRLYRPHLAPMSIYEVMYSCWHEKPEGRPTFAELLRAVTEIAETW

Sequence of BTK (Q06187 whole entry): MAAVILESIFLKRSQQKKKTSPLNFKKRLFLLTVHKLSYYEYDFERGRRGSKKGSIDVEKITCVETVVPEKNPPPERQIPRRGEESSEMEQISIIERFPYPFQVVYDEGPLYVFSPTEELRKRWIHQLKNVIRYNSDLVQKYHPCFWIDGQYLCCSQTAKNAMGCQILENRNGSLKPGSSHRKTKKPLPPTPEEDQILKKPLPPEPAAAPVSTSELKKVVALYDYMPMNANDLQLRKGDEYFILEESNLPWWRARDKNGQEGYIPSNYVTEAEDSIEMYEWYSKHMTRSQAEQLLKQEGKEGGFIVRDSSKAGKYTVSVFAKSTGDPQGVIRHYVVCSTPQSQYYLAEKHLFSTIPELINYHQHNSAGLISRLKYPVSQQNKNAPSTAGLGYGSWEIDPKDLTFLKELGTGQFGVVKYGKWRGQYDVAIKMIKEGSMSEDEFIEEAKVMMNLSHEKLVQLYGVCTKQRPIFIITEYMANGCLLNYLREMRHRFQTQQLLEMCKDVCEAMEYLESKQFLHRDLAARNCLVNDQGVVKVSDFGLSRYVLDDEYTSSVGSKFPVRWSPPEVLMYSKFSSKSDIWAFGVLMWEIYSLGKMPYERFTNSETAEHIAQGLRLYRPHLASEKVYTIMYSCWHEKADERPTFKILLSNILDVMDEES

Usually IC50 stands for the concentration that gives 50% inhibition. A higher IC50 goes with weaker potency in that assay. As to `C=CC(=O)N1CC2(CC(n3c(NC(=O)c4ccc(C(F)F)s4)nc4cc(CN[C@@H](C)C(C)(C)C)ccc43)C2)C1` [Compound 1], the IC50 at BTK came to 378 nM; against TXK, 52.6 nM. In the case of `C=CC(=O)N1CC[C@]2(C1)C[C@H](n1c(NC(=O)c3cnco3)nc3cc(CN[C@@H](C)C(C)(C)C)ccc31)C2` [Compound 6], the values for the IC50 at BTK and against TXK were 4.28 nM and 2.86 nM, respectively. `C=CC(=O)N1CC[C@]2(C1)C[C@H](n1c(NC(=O)c3cnc(C(C)C)s3)nc3cc(CN[C@@H](C)C(C)(C)C)ccc31)C2` [Compound 7]: the IC50 turned out to be 2.2 nM against BTK and 0.6 nM at TXK. The like results for `C=CC(=O)N1CC[C@]2(C1)C[C@H](n1c(NC(=O)c3cnc(C)s3)nc3cc(CN[C@@H](C)C(C)(C)C)ccc31)C2` [Compound 8] were, in that order, 2.36 nM and 0.67 nM. Compound `C=CC(=O)N1CCC[C@]2(C1)C[C@H](n1c(NC(=O)c3ccc(C(F)F)s3)nc3cc(CN[C@@H](C)C(C)(C)C)ccc31)C2` [Compound 9] showed an IC50 against TXK of 0.2 nM. Compound `C=CC(=O)N1CCC[C@]2(C1)C[C@@H](n1c(NC(=O)c3ccc(C(F)F)s3)nc3cc(CN[C@@H](C)C(C)(C)C)ccc31)C2` [Compound 10] had an IC50 at TXK of 0.84 nM. Regarding `C=CC(=O)N1CC[C@]2(C1)C[C@H](n1c(NC(=O)c3ccnn3C)nc3cc(CN[C@@H](C)C(C)(C)C)ccc31)C2` [Compound 14], the figures for the half-maximal inhibitory concentration (IC50) against BTK and against TXK were 23.4 nM and 3.9 nM, respectively. The like results for `C=CC(=O)N1CC[C@]2(C1)C[C@H](n1c(NC(=O)c3ccc(C(F)F)s3)nc3ccccc31)C2` [Compound 15] were, in that order, 4.4 nM and 0.55 nM. Regarding `C=CC(=O)N1CC[C@]2(C1)C[C@@H](n1c(NC(=O)c3ccc(C(F)F)s3)nc3ccccc31)C2` [Compound 17], the IC50 against TXK came to 11 nM. Take `C=CC(=O)N1CC[C@]2(C1)C[C@H](n1c(NC(=O)c3ccncc3)nc3cc(CN[C@@H](C)C(C)(C)C)ccc31)C2` [Compound 20]: the IC50 at BTK is 4.52 nM; against TXK, 1.84 nM.

As for `C=CC(=O)N1CC[C@]2(C1)C[C@H](n1c(NC(=O)c3ccno3)nc3cc(CN[C@@H](C)C(C)(C)C)ccc31)C2` [Compound 21], the IC50 came out at 1.54 nM against BTK and 1.22 nM on TXK. On the same counts, the results for `C=CC(=O)N1CC[C@]2(C1)C[C@H](n1c(NC(=O)c3cccnc3)nc3cc(CN[C@@H](C)C(C)(C)C)ccc31)C2` [Compound 22] are 4.79 nM and 1.71 nM.

In the case of `C=CC(=O)N1CC[C@]2(C1)C[C@H](n1c(NC(=O)c3ccnc(C)c3)nc3cc(CN[C@@H](C)C(C)(C)C)ccc31)C2` [Compound 24], the IC50 against BTK came to 5.47 nM; at TXK it was 0.99 nM. For `C=CC(=O)N1CC[C@]2(C1)C[C@H](n1c(NC(=O)c3ccc(C)nc3)nc3cc(CN[C@@H](C)C(C)(C)C)ccc31)C2` [Compound 26], the IC50 amounted to 2.84 nM against BTK and 0.99 nM on TXK.

For `C#Cc1ccc(C(=O)Nc2nc3cc(CN[C@@H](C)C(C)(C)C)ccc3n2[C@H]2C[C@@]3(CCN(C(=O)C=C)C3)C2)s1` [Compound 28], the IC50 on BTK worked out at 1.7 nM; against TXK, 0.63 nM. The like results for `C=CC(=O)N1CC[C@]2(C1)C[C@H](n1c(NC(=O)c3ccc(-c4cc[nH]c(=O)c4)s3)nc3cc(CO)ccc31)C2` [Compound 29] were, in that order, 0.84 nM and 0.27 nM. On the same counts, the results for `C=CC(=O)N1CC[C@]2(C1)C[C@H](n1c(NC(=O)c3ccc(-c4ccc(N)nc4)s3)nc3ccccc31)C2` [Compound 31] are 5.38 nM and 1.03 nM. The like results for `C=CC(=O)N1CC[C@]2(C1)C[C@H](n1c(NC(=O)c3ccc(OC)nc3)nc3cc(CN[C@@H](C)C(C)(C)C)ccc31)C2` [Compound 32] were, in that order, 5.45 nM and 0.7 nM. For the compound `C=CC(=O)N1CC[C@]2(C1)C[C@H](n1c(NC(=O)c3ccc(-c4ccccc4)nc3)nc3cc(CN[C@@H](C)C(C)(C)C)ccc31)C2` [Compound 33], the results for the half-maximal inhibitory concentration (IC50) on BTK and on TXK were 0.78 nM and 0.32 nM, respectively.

The compound `C=CC(=O)N1CC[C@]2(C1)C[C@@H](n1c(NC(=O)c3ccc(-c4cnco4)s3)nc3ccc(Cl)cc31)C2` [Compound 69] gave a half-inhibitory concentration (IC50) against TXK of 7.71 nM. Regarding `C=CC(=O)N1CC[C@]2(C1)C[C@@H](n1c(NC(=O)c3ccc(-c4cnco4)s3)nc3cc(Cl)ccc31)C2` [Compound 71], the IC50 at TXK was determined as 17.9 nM. The same measure, in the same setting: to `C=CC(=O)N1CC[C@]2(C1)C[C@H](n1c(NC(=O)c3ccc(-c4cnco4)s3)nc3ccc(CO)cc31)C2` [Compound 73] belongs 0.26 nM; to `C=CC(=O)N1CC[C@]2(C1)C[C@H](n1c(NC(=O)c3ccc(C(=O)Nc4cccnc4)s3)nc3ccccc31)C2` [Compound 85], 3.15 nM; to `C=CC(=O)N1CC[C@]2(C1)C[C@H](n1c(NC(=O)c3ccc(-c4cnco4)s3)nc3c(OC)cccc31)C2` [Compound 87], 5.72 nM. Take `C=CC(=O)N1CC[C@]2(C1)C[C@H](n1c(NC(=O)c3ccc(C(=O)N4CCOCC4)s3)nc3ccccc31)C2` [Compound 91]: half-maximal inhibition at TXK (IC50) was put at 17.6 nM. Same read-out and setting: to `C=CC(=O)N1CC[C@]2(C1)C[C@H](n1c(NC(=O)c3ccc(-c4nc(C)no4)s3)nc3ccccc31)C2` [Compound 92] belongs 64.3 nM; to `C=CC(=O)N1CC[C@]2(C1)C[C@H](n1c(NC(=O)c3ccc(-c4noc(C)n4)s3)nc3ccccc31)C2` [Compound 93], 9.88 nM; to `C=CC(=O)N1CC[C@]2(C1)C[C@H](n1c(NC(=O)c3ccc(C(=O)OC)s3)nc3ccccc31)C2` [Compound 98], 0.31 nM. The same measure, in the same setting: as for `C=CC(=O)N1CC[C@]2(C1)C[C@H](n1c(NC(=O)c3ccc(C(=O)N4CCCC4)s3)nc3ccccc31)C2` [Compound 102], the figure is 5.63 nM; as for `C=CC(=O)N1CC[C@]2(C1)C[C@H](n1c(NC(=O)c3ccc(NC(=O)C4CCCC4)s3)nc3ccccc31)C2` [Compound 106], 30.1 nM. On the same count and under the same terms, to `C=CC(=O)N1CC[C@]2(C1)C[C@H](n1c(NC(=O)c3ccc(NC(=O)c4cccnc4)s3)nc3ccccc31)C2` [Compound 111] belongs 64.1 nM. With `C=CC(=O)N1CC[C@]2(C1)C[C@H](n1c(NC(=O)c3ccc(-c4ccc(C#N)cc4)s3)nc3ccccc31)C2` [Compound 118], the IC50 on TXK stood at 7.31 nM.

Take `C=CC(=O)N1CC[C@]2(C1)C[C@H](n1c(NC(=O)c3ccc(N4CCCC4=O)s3)nc3ccccc31)C2` [Compound 121]: 5.48 nM corresponded to half-maximal inhibition at TXK (IC50).

Take `C=CC(=O)N1CC[C@]2(C1)C[C@H](n1c(NC(=O)c3ccc(-c4cccc(C#N)c4)s3)nc3ccccc31)C2` [Compound 122]: half-maximal inhibition against TXK (IC50) required 1.22 nM.

As to `C=CC(=O)N1CC[C@]2(C1)C[C@H](n1c(NC(=O)c3ccc(-c4cncnc4)s3)nc3cc(CO)ccc31)C2` [Compound 148], on TXK, 0.69 nM corresponded to half-maximal inhibition (IC50).
